Data from US4659741A, “β-[2-(halogenobenzyl)-phenoxy]-ethylamine derivatives” (Institut de Recherches Chimiques et Biologiques Appliquees …, priority 1983, dated 1987).
≈ marks a conversion by molar mass, not a printed value. Entries after “also recorded” stand apart in the source; their conditions may differ. Like-named read-outs stand apart in the source and are kept apart here.

Columns and labels:
[1] = system: Staphylococcus aureus London CIP A.238; test: Minimal inhibiting concentration (MIC), Gram+ strain (Table IV); assay type: cell-based; details: for MIC: Staphylococcus aureus
Source text: (§1) A certain number of compounds according to the invention are given non-restrictively by way of illustration in tables I, II and III hereinafter. The minimal inhibiting concentrations (MIC) of these compounds vis-a-vis a Gram+bacteria (Staphylococcus aureus London) a Gram-bacteria (Escherichia coli) and a fungus (Candida albicans) are given hereinafter in table IV. In table V are tabulated the MIC values of two compounds according to the invention which are particularly interesting [compound B 673 (example 26) and compound B 674 (example 29)] vis-a-vis several strains.
(§2) The strains used are those of the catalogues of the "Institut Pasteur" of Paris (abbreviation: CIP), the "Centre International de Distribution de Souches et d'Information sur les Types Microbiens de Lausanne" (abbreviation: La) and the "American Type Culture Collection" (abbreviation: ATCC).
G^+ = Gram^+ strain: Staphylococcus aureus London CIP A.238

[2] = system: Escherichia coli CIP 54.8; test: Minimal inhibiting concentration (MIC), Gram- strain (Table IV); assay type: cell-based; details: CIP54
Source text: as §1, §2
G^- = Gram^- strain: Escherichia coli CIP 54.8

[3] = system: Candida albicans CIP 1180; test: Minimal inhibiting concentration (MIC), fungus strain (Table IV); assay type: cell-based; details: for MIC: Candida albicans, CIP1180, Candida albicans CIP 1180; for MIC C: Candida albicans CIP 1180
Source text: as §1, §2
C = fungus strain: Candida albicans CIP 1180

Gram+ bacteriae = details: infectious diseases caused by Gram+ bacteriae; cited from earlier work
[4] = cited from earlier work
[5] = system: Bacillus subtilis ATCC 6633; test: MIC vis-a-vis several strains (Table V); assay type: cell-based; details: ATCC6633
Source text: as §1, §2

[6] = system: Branhamella catarrhalis la 987; test: MIC vis-a-vis several strains (Table V); assay type: cell-based; details: Moraxella catarrhalis, LA987
Source text: as §1, §2

[7] = system: Corynebacterium diphteriae CIP A.102; test: MIC vis-a-vis several strains (Table V); assay type: cell-based; details: CIPA.102
Source text: as §1, §2

[8] = system: Diplococcus pneumoniae la 209; test: MIC vis-a-vis several strains (Table V); assay type: cell-based; details: Streptococcus pneumoniae, LA209
Source text: as §1, §2

[9] = system: Haemophilus influenzae CIP 5293; test: MIC vis-a-vis several strains (Table V); assay type: cell-based; details: CIP5293
Source text: as §1, §2

[10] = system: Klebsiella pneumoniae la 433; test: MIC vis-a-vis several strains (Table V); assay type: cell-based; details: LA433
Source text: as §1, §2

[11] = system: Listeria monocytogenes CIP 54153; test: MIC vis-a-vis several strains (Table V); assay type: cell-based; details: CIP54153
Source text: as §1, §2

[12] = system: Neisseria gonorrhoeae CIP A.52; test: MIC vis-a-vis several strains (Table V); assay type: cell-based; details: CIPA.52
Source text: as §1, §2

[13] = system: Neisseria meningitidis CIP 7310; test: MIC vis-a-vis several strains (Table V); assay type: cell-based; details: CIP7310
Source text: as §1, §2

[14] = system: Staphylococcus aureus ATCC 6538 P; test: MIC vis-a-vis several strains (Table V); assay type: cell-based; details: ATCC6538
Source text: as §1, §2

[15] = system: Streptococcus faecalis CIP 53.152; test: MIC vis-a-vis several strains (Table V); assay type: cell-based; details: Enterococcus faecalis, CIP53
Source text: as §1, §2

[16] = system: Streptococcus pyogenes CIP 56.42; test: MIC vis-a-vis several strains (Table V); assay type: cell-based; details: CIP56
Source text: as §1, §2

[17] = system: Streptococcus pyogenes CIP 5641; test: MIC vis-a-vis several strains (Table V); assay type: cell-based; details: CIP5641
Source text: as §1, §2

[18] = system: Streptococcus pyogenes CIP A.241; test: MIC vis-a-vis several strains (Table V); assay type: cell-based; details: CIPA.241
Source text: as §1, §2

[19] = system: Streptococcus pyogenes la 147; test: MIC vis-a-vis several strains (Table V); assay type: cell-based; details: LA147
Source text: as §1, §2

[20] = Toxicity, LD-50 mice (Table VI); details: for LD50: mouse, in vivo

## CCCCc1ccc(OCCN(CC)CC)c(Cc2ccc(Cl)cc2Cl)c1 [Example 7]
[1]
  MIC: 64 µg/mL (≈ 157 µM)
[2]
  MIC: 64 µg/mL (≈ 157 µM)
[3]
  MIC: 64 µg/mL (≈ 157 µM)

## CCN(CC)CCOc1ccc(C(C)C)cc1Cc1ccc(Cl)cc1Cl [Example 12]
[1]; listed as Ex 12
  MIC G^+: 4 μ g/ml
[3]; listed as Ex 12
  MIC C: 4 μ g/ml
Spasmolytic properties; listed as B 805
  spasmolytic properties: beneficial spasmolytic properties; also recorded: The most interesting compound, as spasmolytic agent

## CCN(CC)CCOc1ccc(C(C)(C)CC(C)(C)C)cc1Cc1ccc(Cl)cc1Cl [Example 15]
[1]; listed as Ex 15
  MIC G^+: 16 μ g/ml
Spasmolytic properties
  spasmolytic properties: beneficial spasmolytic properties

## CC[N+](C)(CC)CCOc1ccc(C(C)(C)CC(C)(C)C)cc1Cc1ccc(Cl)cc1Cl [Example 22]
[1]
  MIC: 0.125 µg/mL
[2]
  MIC: 64 µg/mL
[3]
  MIC: 0.25 µg/mL

## CCC(C)c1ccc(OCCN(CC)CC)c(Cc2ccc(Cl)cc2Cl)c1 (centres unmarked) [Example 4]
[1]; listed as Ex 4
  MIC G^+: 32 μ g/ml
[3]; listed as Ex 4
  MIC C: 16 μ g/ml

## CC(C)(C)CC(C)(C)c1ccc(O)c(Cc2ccc(Cl)cc2Cl)c1 [B.11, 2-(2,4-dichlorobenzyl)-4-(1,1,3,3-tetramethylbutyl)-phenol]
Gram+ bacteriae
  effectiveness in the treatment of infectious diseases: particularly effective in the treatment of infectious diseases caused by Gram+ bacteriae
[4]
  water solubility / dispersibility: not naturally water soluble nor water dispersible

## CCN(CC)CCOc1ccc(C(C)(C)CC)cc1Cc1ccc(Cl)cc1Cl.Cl [Example 14, β-[2-(2,4-dichlorobenzyl)-4-(1,1-dimethylpropyl)-phenoxy]-N,N-diethylethylamine hydrochloride]
[1]
  MIC: 8 µg/mL
[2]
  MIC: 64 µg/mL
[3]
  MIC: 4 µg/mL
Spasmolytic properties
  spasmolytic properties: beneficial spasmolytic properties

## CC[N+](CC)(CCOc1ccc(C)cc1Cc1ccc(Cl)cc1Cl)Cc1ccccc1 [Example 26]
[1]
  MIC: 0.25 µg/mL
[2]
  MIC: 32 µg/mL
[3]
  MIC: 4 µg/mL
[5]
  MIC: 1.56 µg/mL
[6]
  MIC: 0.78 µg/mL
[7]
  MIC: 25 µg/mL
[8]
  MIC: 1.56 µg/mL
[9]
  MIC: 0.78 µg/mL
[10]
  MIC: 25 µg/mL
[11]
  MIC: 1.56 µg/mL
[12]
  MIC: 0.78 µg/mL
[13]
  MIC: 0.78 µg/mL
[14]
  MIC: 0.78 µg/mL
[15]
  MIC: 3.12 µg/mL
[16]
  MIC: 0.78 µg/mL
[17]
  MIC: 0.78 µg/mL
[18]
  MIC: 0.78 µg/mL
[19]
  MIC: 0.78 µg/mL
[20]
  LD50: > 1000 mg/kg

## CC[N+](CC)(CCOc1ccc(C(C)(C)C)cc1Cc1ccc(Cl)cc1Cl)Cc1ccccc1 [Example 29, N,N-diethyl-N-{2-[2-(2,4-dichlorobenzyl)-tertiobutylphenoxy]-ethyl}-N-benzylammonium chloride]
[1]
  MIC: 0.015 µg/mL
[2]
  MIC: 4 µg/mL
[3]
  MIC: 0.125 µg/mL
[5]
  MIC: 0.78 µg/mL
[6]
  MIC: 0.78 µg/mL
[7]
  MIC: 3.12 µg/mL
[8]
  MIC: 0.78 µg/mL
[9]
  MIC: 0.78 µg/mL
[10]
  MIC: 6.25 µg/mL
[11]
  MIC: 0.78 µg/mL
[12]
  MIC: 0.78 µg/mL
[13]
  MIC: 0.78 µg/mL
[14]
  MIC: 0.78 µg/mL
[15]
  MIC: 0.78 µg/mL
[16]
  MIC: 0.78 µg/mL
[17]
  MIC: 0.78 µg/mL
[18]
  MIC: 0.78 µg/mL
[19]
  MIC: 0.78 µg/mL
[20]
  LD50: > 1000 mg/kg

## CCC(C)(C)c1ccc(OCC[N+](CC)(CC)Cc2ccccc2)c(Cc2ccc(Cl)cc2Cl)c1 [Example 30]
[1]
  MIC: 0.004 µg/mL
[2]
  MIC: 4 µg/mL
[3]
  MIC: 0.25 µg/mL
[20]
  LD50: > 1000 mg/kg

## CCN(CC)CCOc1ccc(C(C)C)cc1Cc1ccc(Cl)cc1Cl [Example 3]
[1]; listed as Ex 3
  MIC G^+: 16 μ g/ml
[3]
  MIC: 8 µg/mL (≈ 20.3 µM)

## CCN(CC)CCOc1ccc(C(C)(C)CC(C)(C)C)cc1Cc1ccc(Cl)cc1Cl [Example 9]
[1]
  MIC: 25 µg/mL (≈ 53.8 µM)

## benzalkonium chloride [Example A-1, reference compound]
[20]; mice, route not given
  LD-50 mice: 550 mg/kg

## CCc1ccc(OCC[N+](CC)(CC)Cc2ccccc2)c(Cc2ccc(Cl)cc2Cl)c1 [Example 27]
[1]
  MIC: 0.125 µg/mL
[2]
  MIC: 8 µg/mL
[3]
  MIC: 0.5 µg/mL
[20]
  LD50: 850 mg/kg

## CCCCCCc1ccc(OCC[N+](CC)(CC)Cc2ccccc2)c(Cc2ccc(Cl)cc2Cl)c1 [Example 32]
[1]
  MIC: 0.125 µg/mL
[2]
  MIC: 16 µg/mL
[3]
  MIC: 0.5 µg/mL

## CCN(CC)CCOc1ccc(C)cc1Cc1ccc(Cl)cc1Cl [Example 1]
[1]
  MIC: 12.5 µg/mL (≈ 34.1 µM)
[2]
  MIC: 50 µg/mL (≈ 136 µM)

## CCN(CC)CCOc1ccc(C(C)(C)C)cc1Cc1ccc(Cl)cc1Cl [Example 5, β-[2-(2,4-dichlorobenzyl)-4-tertiobutylphenoxy]-N,N-diethyl-ethylamin]
[1]
  MIC: 50 µg/mL (≈ 122 µM)

## CCCCCCc1ccc(OCCN(CC)CC)c(Cc2ccc(Cl)cc2Cl)c1 [Example 8]
[1]
  MIC: 64 µg/mL (≈ 147 µM)
[2]
  MIC: 64 µg/mL (≈ 147 µM)
[3]
  MIC: 64 µg/mL (≈ 147 µM)

## CCc1ccc(OCCN(CC)CC)c(Cc2ccc(Cl)cc2Cl)c1 [Example 2]
[1]; listed as Ex 2
  MIC G^+: 64 μ g/ml
[3]; listed as Ex 2
  MIC C: 64 μ g/ml

## CCc1ccc(OCCN(CC)CC)c(Cc2ccc(Cl)cc2Cl)c1 [Example 11]
[1]; listed as Ex 11
  MIC G^+: 8 μ g/ml
[3]; listed as Ex 11
  MIC C: 8 μ g/ml
Spasmolytic properties
  spasmolytic properties: beneficial spasmolytic properties

## CC[N+](CC)(CCOc1ccc(C(C)C)cc1Cc1ccc(Cl)cc1Cl)Cc1ccccc1 [Example 28]
[1]
  MIC: 0.015 µg/mL
[2]
  MIC: 8 µg/mL
[3]
  MIC: 0.25 µg/mL

## CCCC[N+](CC)(CC)CCOc1ccc(C(C)(C)CC(C)(C)C)cc1Cc1ccc(Cl)cc1Cl [Example 24]
[1]
  MIC: 0.015 µg/mL
[2]
  MIC: 16 µg/mL
[3]
  MIC: 1 µg/mL

## CCC(C)c1ccc(OCCN(CC)CC)c(Cc2ccc(Cl)cc2Cl)c1 (centres unmarked) [Example 13]
[1]; listed as Ex 13
  MIC G^+: 8 μ g/ml
[3]; listed as Ex 13
  MIC C: 0.5 μ g/ml
Spasmolytic properties
  spasmolytic properties: beneficial spasmolytic properties

## CCCCCCCCCCCCCCCC[N+](C)(C)C [Example A-2, cetrymonium chloride, reference compound]
[20]
  LD50: 750 mg/kg

## CCCCc1ccc(OCC[N+](CC)(CC)Cc2ccccc2)c(Cc2ccc(Cl)cc2Cl)c1 [Example 31]
[1]
  MIC: 0.031 µg/mL
[2]
  MIC: 4 µg/mL
[3]
  MIC: 0.125 µg/mL
[20]
  LD50: > 1000 mg/kg

## CCC(C)(C)c1ccc(OCC[N+](C)(CC)CC)c(Cc2ccc(Cl)cc2Cl)c1.[I-] [Example 21, N,N-diethyl-N-{2-[2-(2,4-dichlorobenzyl)-4-(1,1-dimethylpropyl)-phenoxy]-ethyl}-N-methylammonium iodide]
[1]
  MIC: 0.125 µg/mL
[2]
  MIC: 8 µg/mL
[3]
  MIC: 0.5 µg/mL

## CCCC[N+](CC)(CC)CCOc1ccc(C(C)(C)CC)cc1Cc1ccc(Cl)cc1Cl.[Br-] [Example 23, N,N-diethyl-N-{2-[2-(2,4-dichlorobenzyl)-4-(1,1-dimethylpropyl)-phenoxy]-ethyl}-N-butylammonium bromide]
[1]
  MIC: 0.06 µg/mL
[2]
  MIC: 4 µg/mL
[3]
  MIC: 0.25 µg/mL
[20]
  LD50: > 1000 mg/kg

## CCN(CC)CCOc1ccc(C(C)(C)CC)cc1Cc1ccc(Cl)cc1Cl [Example 6, β-[2-(2,4-dichlorobenzyl)-4-(1,1-dimethylpropyl)-phenoxy]-N,N-diethylethylamine]
[1]
  MIC: 8 µg/mL (≈ 18.9 µM)
[3]
  MIC: 16 µg/mL (≈ 37.9 µM)

## CC(C)c1ccc(OCCN(C)C)c(Cc2ccc(Cl)c(Cl)c2)c1 [Example 10]
[1]
  MIC: 16 µg/mL (≈ 43.7 µM)
[2]
  MIC: 64 µg/mL (≈ 175 µM)

## CC[N+](CC)(CCOc1ccc(C(C)(C)CC(C)(C)C)cc1Cc1ccc(Cl)cc1Cl)Cc1ccccc1 [Example 33]
[1]
  MIC: 0.03 µg/mL
[3]
  MIC: 1 µg/mL
